From patent publication US20180002288A1, “USE OF PICOLINAMIDES AS FUNGICIDES” (DOW AGROSCIENCES LLC, priority 2014, published 2018) come the findings set out here.

Where two headings read alike, the source gives them in different places.

One assay has as its system Puccinia triticina. The experiment in a line: Wheat Brown Rust fungicidal activity (PUCCRT). The following applies: for pest or weed control at 121.5 g/ha: Low Volume Cereal Activity at 121.5 g/Ha; for pest or weed control at 100 ppm: wheat, high volume. In kind it is in vivo. On the procedure:
All fungicides were evaluated using the aforementioned method for their activity vs. all target diseases, unless stated otherwise. Wheat leaf blotch and brown rust activity were also evaluated using track spray applications, in which case the fungicides were formulated as EC formulations, containing 0.1% Trycol 5941 in the spray solutions. Wheat plants (variety Yuma) were grown from seed in a greenhouse in 50% mineral soil/50% soil-less Metro mix until the first leaf was fully emerged, with 7-10 seedlings per pot. These plants were inoculated with an aqueous spore suspension of Zymoseptoria tritici either prior to or after fungicide treatments. After inoculation the plants were kept in 100% relative humidity (one day in a dark dew chamber followed by two to three days in a lighted dew chamber at 20° C.) to permit spores to germinate and infect the leaf. The plants were then transferred to a greenhouse set at 20° C. for disease to develop. When disease symptoms were fully expressed on the 1st leaves of untreated plants, infection levels were assessed on a scale of 0 to 100 percent disease severity. Percent disease control was calculated using the ratio of disease severity on treated plants relative to untreated plants. Wheat plants (variety Yuma) were grown from seed in a greenhouse in 50% mineral soil/50% soil-less Metro mix until the first leaf was fully emerged, with 7-10 seedlings per pot. These plants were inoculated with an aqueous spore suspension of Puccinia triticina either prior to or after fungicide treatments. […] The plants were then transferred to a greenhouse set at 24° C. for disease to develop. Fungicide formulation, application and disease assessment followed the procedures as described in the Example A.

The next assay has as its system Zymoseptoria tritici. Nature of the assay: Leaf Blotch of Wheat fungicidal activity (SEPTTR). In kind it is in vivo. As to conditions: for pest or weed control at 121.5 g/ha: Low Volume Cereal Activity at 121.5 g/Ha; for pest or weed control at 100 ppm: wheat, high volume. How it is done:
All fungicides were evaluated using the aforementioned method for their activity vs. all target diseases, unless stated otherwise. Wheat leaf blotch and brown rust activity were also evaluated using track spray applications, in which case the fungicides were formulated as EC formulations, containing 0.1% Trycol 5941 in the spray solutions. Wheat plants (variety Yuma) were grown from seed in a greenhouse in 50% mineral soil/50% soil-less Metro mix until the first leaf was fully emerged, with 7-10 seedlings per pot. These plants were inoculated with an aqueous spore suspension of Zymoseptoria tritici either prior to or after fungicide treatments. After inoculation the plants were kept in 100% relative humidity (one day in a dark dew chamber followed by two to three days in a lighted dew chamber at 20° C.) to permit spores to germinate and infect the leaf. The plants were then transferred to a greenhouse set at 20° C. for disease to develop. When disease symptoms were fully expressed on the 1st leaves of untreated plants, infection levels were assessed on a scale of 0 to 100 percent disease severity. Percent disease control was calculated using the ratio of disease severity on treated plants relative to untreated plants.

[1] abbreviates: 24 h, 1 Day Protectant, read-out: PUCCRT 1DP (Wheat Brown Rust, 1 Day Protectant).
[2] abbreviates: 72 h, 3 Day Curative, read-out: PUCCRT 3DC (Wheat Brown Rust, 3 Day Curative).
Where [3] appears, read: 24 h, 1 Day Protectant, read-out: SEPTTR 1DP (Wheat Leaf Blotch, 1 Day Protectant).
Setting [4] is: 72 h, 3 Day Curative, read-out: SEPTTR 3DC (Wheat Leaf Blotch, 3 Day Curative).
Where [5] appears, read: 24 h, 1 Day Protectant, read-out: PUCCRT 1DP % Control rating.
Setting [6] is: 72 h, 3 Day Curative, read-out: PUCCRT 3DC % Control rating.
The mark [7] stands for this setting: 24 h, 1 Day Protectant, read-out: SEPTTR 1DP % Control rating.
The mark [8] stands for this setting: 72 h, 3 Day Curative, read-out: SEPTTR 3DC % Control rating.

Regarding `COc1ccnc(C(=O)N[C@@H](C)C(=O)O[C@@H](C)[C@H](Oc2ccc(C)cc2)c2ccccc2)c1OCOC(C)=O` [Example 248], the pest or weed control at 121.5 g/ha in the assay on Puccinia triticina (setting [1]), in the assay on Puccinia triticina (setting [2]), in the assay with Zymoseptoria tritici (setting [3]) and in the assay on Zymoseptoria tritici (setting [4]) was more than 80% throughout.

With `COc1ccnc(C(=O)N[C@@H](C)C(=O)O[C@@H](C)[C@H](Oc2ccccc2)c2ccc3ccccc3c2)c1O` [Example 166], the pest or weed control at 100 ppm in the assay with Puccinia triticina (setting [5]), in the assay on Puccinia triticina (setting [6]), in the assay with Zymoseptoria tritici (setting [7]) and with Zymoseptoria tritici (setting [8]) was more than 80% each time.

In the case of `COc1ccnc(C(=O)N[C@@H](C)C(=O)O[C@@H](C)[C@H](Oc2ccccc2)c2ccc(F)cc2Cl)c1O` [Example 163], the pest or weed control at 100 ppm with Puccinia triticina (setting [5]), in the assay with Puccinia triticina (setting [6]), with Zymoseptoria tritici (setting [7]) and in the assay with Zymoseptoria tritici (setting [8]) was more than 80% throughout.

For `COc1ccnc(C(=O)N[C@@H](C)C(=O)O[C@@H](C)[C@@H](Oc2ccccc2)c2ccccc2)c1O` [Example 135], the pest or weed control at 100 ppm with Puccinia triticina (setting [5]) was more than 80%; in the assay with Puccinia triticina (setting [6]) it was less than 0%; in the assay with Zymoseptoria tritici (setting [7]), more than 80%; in the assay on Zymoseptoria tritici (setting [8]), more than 80%.

As to `C=CCOc1cc(F)ccc1[C@@H](Oc1ccccc1)[C@H](C)OC(=O)[C@H](C)NC(=O)c1nccc(OC)c1O` [Example 167], the pest or weed control at 100 ppm in the assay with Puccinia triticina (setting [5]), in the assay on Puccinia triticina (setting [6]), in the assay with Zymoseptoria tritici (setting [7]) and with Zymoseptoria tritici (setting [8]) was more than 80% each time.

Consider `COc1ccnc(C(=O)N[C@@H](C)C(=O)O[C@@H](C)[C@H](Oc2ccc(C)cc2Cl)c2ccc(F)cc2)c1OCOC(C)=O` [Example 245], for which the pest or weed control at 121.5 g/ha in the assay with Puccinia triticina (setting [1]) was more than 80%; in the assay with Puccinia triticina (setting [2]) it was less than 80%; with Zymoseptoria tritici (setting [3]), more than 80%; in the assay with Zymoseptoria tritici (setting [4]), more than 80%.

Take `COc1ccnc(C(=O)N[C@@H](C)C(=O)O[C@@H](C)[C@H](Oc2cccc(F)c2)c2ccccc2)c1O` [Example 127]: the pest or weed control at 100 ppm in the assay with Puccinia triticina (setting [5]), in the assay with Puccinia triticina (setting [6]), in the assay on Zymoseptoria tritici (setting [7]) and with Zymoseptoria tritici (setting [8]) was more than 80% in each case.

Take `COc1ccnc(C(=O)N[C@@H](C)C(=O)O[C@@H](C)[C@@H](Oc2ccccc2)c2cccs2)c1OC(C)=O` [Example 210]: the pest or weed control at 121.5 g/ha in the assay with Puccinia triticina (setting [1]), with Puccinia triticina (setting [2]), in the assay with Zymoseptoria tritici (setting [3]) and in the assay with Zymoseptoria tritici (setting [4]) was less than 80% in each case.

Regarding `COc1ccnc(C(=O)N[C@@H](C)C(=O)O[C@@H](C)[C@H](Oc2cc(F)cc(Cl)c2)c2ccccc2)c1OCOC(C)=O` [Example 206], the pest or weed control at 121.5 g/ha in the assay on Puccinia triticina (setting [1]) is more than 80%; in the assay on Puccinia triticina (setting [2]) it was less than 80%; in the assay with Zymoseptoria tritici (setting [3]), more than 80%; in the assay on Zymoseptoria tritici (setting [4]), more than 80%.

For `COc1ccnc(C(=O)N[C@@H](Cc2ccccc2)C(=O)O[C@@H](C)[C@H](Oc2cccc(F)c2)c2ccccc2)c1OCOC(C)=O` [Example 189], the pest or weed control at 121.5 g/ha was more than 80% in the assay on Puccinia triticina (setting [1]), less than 80% in the assay on Puccinia triticina (setting [2]), less than 80% in the assay on Zymoseptoria tritici (setting [3]) and less than 0% with Zymoseptoria tritici (setting [4]).

`COc1ccnc(C(=O)N[C@@H](C)C(=O)O[C@@H](C)[C@@H](Oc2ccc(Cl)cc2Cl)c2ccccc2)c1O` [Example 134]: the pest or weed control at 100 ppm is more than 80% in the assay with Puccinia triticina (setting [5]), more than 80% in the assay with Puccinia triticina (setting [6]), more than 80% in the assay with Zymoseptoria tritici (setting [7]) and less than 80% in the assay on Zymoseptoria tritici (setting [8]).

In the case of `COc1ccnc(C(=O)N[C@@H](C)C(=O)O[C@@H](C)[C@H](Oc2ccccc2)c2ccc(C)cc2)c1O` [Example 154], the pest or weed control at 100 ppm in the assay on Puccinia triticina (setting [5]), in the assay on Puccinia triticina (setting [6]), with Zymoseptoria tritici (setting [7]) and in the assay with Zymoseptoria tritici (setting [8]) was more than 80% throughout.
